In data set [1] the target is T1, cloned human 5-HT1A receptors (Homo sapiens, UniProt P08908).
T1 construct: expressed in transfected cells
T1 sequence (P08908 1-422): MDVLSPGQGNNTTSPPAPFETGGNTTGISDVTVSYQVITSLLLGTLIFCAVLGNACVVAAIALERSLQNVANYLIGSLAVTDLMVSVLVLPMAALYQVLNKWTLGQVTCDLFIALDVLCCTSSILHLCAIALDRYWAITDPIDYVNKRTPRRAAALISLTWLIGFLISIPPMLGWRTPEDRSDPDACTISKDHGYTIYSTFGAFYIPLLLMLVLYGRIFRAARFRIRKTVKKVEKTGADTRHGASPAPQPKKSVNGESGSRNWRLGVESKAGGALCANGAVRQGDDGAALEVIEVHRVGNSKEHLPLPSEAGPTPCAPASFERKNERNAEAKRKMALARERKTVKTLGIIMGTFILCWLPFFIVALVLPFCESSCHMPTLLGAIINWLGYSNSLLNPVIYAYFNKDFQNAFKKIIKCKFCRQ
Kind of data set: 35S-GTPγS binding assay, 5-HT1A function. Type of data set: biochemical. The conditions noted are these: for EC50: agonist potency; for IC50: antagonist potency, reversal of 8-OH-DPAT, read-out: 5-HT1A Function GTPγS IC50. Background: GTPγS is a poorly hydrolysed GTP analogue; its binding reports G protein activation.

Data set [2] deals with T2, 5-HT1A receptor (Homo sapiens, UniProt P08908).
T2 sequence (P08908 1-422): T1 sequence (P08908 1-422)
Description: 5-HT1A receptor affinity: displacement of [3H] 8-OH-DPAT. Further details: expressed in transfected cells. Type of data set: binding. The conditions noted are these: for Ki: displacement of [3H] 8-OH-DPAT, CHO cells stably transfected with human 5-HT1A receptors, read-out: 5-HT1A Receptor Affinity Ki; for inhibition at 1 µM: read-out: 5-HT1A Receptor Affinity, % @ 1 μM. (In a radioligand displacement assay an active substance lowers the binding of a labelled ligand.)

The target of another data set is T3, serotonin transporter (Rattus norvegicus, UniProt P31652).
T3 construct: displace ^3H-paroxetine from male rat cortical membranes; from tissue; host or cells: male rat cortical membranes
Kind of data set: 5-HT transporter affinity: displacement of 3H-paroxetine from male rat cortical membranes. Type of data set: binding. The conditions noted are these: displacement of 3H-paroxetine; male rat cortical membranes; read-out: 5-HT Transporter Affinity Ki.

In data set [3] the target is T2, 5-HT1A receptor. Description: cAMP accumulation assay, 5-HT1A function. Type of data set: cell-based. The note with it: for EC50: cells marked EC50 (agonist); for Emax: in brackets after EC50 or IC50, read-out: 5-HT1A Function cAMP (Emax); for IC50: cells marked IC50 (antagonist), read-out: 5-HT1A Function cAMP IC50. For orientation: cAMP levels reflect the balance of adenylyl cyclase and phosphodiesterase activity.

Where [4] appears, read: maximum stimulatory effect, in brackets after EC50, read-out: 5-HT1A Function GTPγS (Emax).
Where [5] appears, read: maximum inhibitory effect, in brackets after IC50, read-out: 5-HT1A Function GTPγS (Imax).

Like-named read-outs stand apart in the source and are kept apart here.

The EC50 is the concentration needed to bring the measured effect to its halfway point. A higher EC50 goes with weaker potency. As a reminder, the melting point is the temperature of the solid-liquid transition. Usually Ki stands for the equilibrium dissociation constant of an inhibitor or competing ligand from its target. One may read the IC50 as the point on the concentration scale where inhibition reaches its midpoint.

T3 sequence (P31652 whole entry): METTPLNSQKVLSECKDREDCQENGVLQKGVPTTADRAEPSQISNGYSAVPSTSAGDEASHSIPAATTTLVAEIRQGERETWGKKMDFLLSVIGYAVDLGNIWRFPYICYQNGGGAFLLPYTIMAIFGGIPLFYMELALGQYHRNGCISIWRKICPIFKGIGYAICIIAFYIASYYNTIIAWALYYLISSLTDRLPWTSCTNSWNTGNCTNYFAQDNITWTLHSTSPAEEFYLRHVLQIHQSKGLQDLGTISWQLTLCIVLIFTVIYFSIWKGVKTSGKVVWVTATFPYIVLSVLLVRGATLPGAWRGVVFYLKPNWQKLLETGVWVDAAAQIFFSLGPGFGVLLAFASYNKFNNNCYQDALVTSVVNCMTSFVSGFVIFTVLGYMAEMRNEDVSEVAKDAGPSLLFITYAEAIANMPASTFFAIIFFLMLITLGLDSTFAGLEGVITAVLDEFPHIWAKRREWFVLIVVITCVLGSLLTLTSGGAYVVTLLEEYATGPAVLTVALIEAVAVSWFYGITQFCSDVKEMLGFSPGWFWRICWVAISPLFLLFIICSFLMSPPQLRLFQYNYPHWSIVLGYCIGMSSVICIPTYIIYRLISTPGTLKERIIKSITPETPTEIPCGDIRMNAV

In the case of `NC(=O)c1cccc2c1CC(NCCCc1c[nH]c3ccc(F)cc13)CO2` (stereo not drawn) [Compound 133, 3-{[3-(5-fluoro-1H-indol-3-yl)propyl]amino}chromane-5-carboxamide], the melting point was 153 to 155 °C. Moreover, the EC50 in data set [1] amounted to 3 µM. Besides, the Emax in data set [1] (setting [4]) worked out at 100%. The Ki on 5-HT1A receptor [2] worked out at 0.0651 µM. Further, the Ki at serotonin transporter was 0.0236 µM. Further, at 5-HT1A receptor [3], the EC50 is 0.128 µM and the Emax turned out to be 84%.
`NC(=O)c1cccc2c1CC(N(CCCc1c[nH]c3ccc(F)cc13)C1CCC1)CO2` (stereo not drawn) [Compound 134, 3-{cyclobutyl[3-(5-fluoro-1H-indol-3-yl)propyl]amino}chromane-5-carboxamide] showed a melting point of 102 to 105 °C. Further, in data set [1], a half-maximal effect (EC50) was put at 0.0218 µM and the IC50 turned out to be 0.184 µM. The Emax in data set [1] (setting [5]) worked out at 69%. For the same molecule, the Emax in data set [1] (setting [4]) was 28%. Further, the Ki on 5-HT1A receptor [2] was 0.00175 µM. Besides, the Ki at serotonin transporter was 0.00867 µM. Besides, at 5-HT1A receptor [3], the 50% effective concentration (EC50) stood at 0.0192 µM and the Emax was found to be 81%.
`O=C(O)c1cccc2c1CC(N(CCCc1c[nH]c3c(F)cc(F)cc13)C1CCC1)CO2` (stereo not drawn) [Compound 137, 3-{cyclobutyl[3-(5,7-difluoro-1H-indol-3-yl)propyl]amino}chromane-5-carboxylic acid] registered a melting point of 130 to 131 °C. On 5-HT1A receptor [2], the inhibition at 1 µM was determined as 0%. The inhibition constant (Ki) on serotonin transporter stood at 0.421 µM.
`COc1cccc2c(CCNC3COc4c(F)ccc(C(N)=O)c4C3)coc12` (stereo not drawn) [Compound 156, 8-fluoro-3-{[2-(7-methoxy-1-benzofuran-3-yl)ethyl]amino}chromane-5-carboxamide] gave a melting point of 172 to 174 °C. The inhibition at 1 µM at 5-HT1A receptor [2] came to 28%. For the same molecule, the Ki on serotonin transporter came to 0.381 µM.
For the molecule `COc1cccc2c(CCCNC3COc4c(F)ccc(C(N)=O)c4C3)coc12` (stereo not drawn) [Compound 161, 8-fluoro-3-{[3-(7-methoxy-1-benzofuran-3-yl)propyl]amino}chromane-5-carboxamide], the melting point lay within 163 to 166 °C. The IC50 in data set [1] was 3 µM. In addition, in data set [1] (setting [5]), the Emax worked out at 100%. In addition, the Ki on 5-HT1A receptor [2] is 0.0435 µM. In addition, on serotonin transporter, the Ki turned out to be 0.234 µM. At 5-HT1A receptor [3], the IC50 amounted to 0.607 µM and the Emax is 0%.
In the case of `COc1cccc2c(CCCCNC3COc4c(F)ccc(C(N)=O)c4C3)coc12` (stereo not drawn) [Compound 167, 8-fluoro-3-{[4-(7-methoxy-1-benzofuran-3-yl)butyl]amino}chromane-5-carboxamide], the melting point was 138 to 141 °C. Further, in data set [1], the half-inhibitory concentration (IC50) worked out at 1.82 µM. Moreover, the Emax in data set [1] (setting [5]) turned out to be 100%. In addition, the Ki on 5-HT1A receptor [2] was 0.0312 µM. On serotonin transporter, the Ki was 0.0449 µM. Moreover, at 5-HT1A receptor [3], the half-maximal inhibitory concentration (IC50) turned out to be 0.136 µM and the Emax was 0%.

Source of the values: patent US20050032873A1, “3-Amino chroman and 2-amino tetralin derivatives” (Wyeth, priority 2003, published 2005).
